{"source": "patent US7709458B2", "about": "“Method for inhibiting cancer cell proliferation or increasing cancer cell apoptosis” (priority 2004, dated 2010)", "key": {"[1]": {"settings": "patients with Stage II or III disease; adjuvant chemotherapy (Bresalier, 2002); cited from earlier work"}, "[2]": {"system": "H508 human colon cancer cells", "assay": "H508 colon cancer cell proliferation assay (sulforhodamine B colorimetric assay)", "format": "cell-based", "settings": "for effect on basal H508 cell proliferation / effect on EGF-induced H508 cell proliferation / effect on acetylcholine-induced H508 cell proliferation: 50 μM; for effect on basal H508 cell proliferation / potency in reducing acetylcholine- and EGF-stimulated H508 proliferation compared with c-di-GMP: 5 days incubation; for effect on EGF-induced H508 cell proliferation: EGF 1 ng/ml; for effect on EGF-induced H508 cell proliferation / effect on acetylcholine-induced H508 cell proliferation: 5 days; for effect on acetylcholine-induced H508 cell proliferation: acetylcholine 300 μM", "procedure": "H508 colon cancer cell culture. H508 human colon cancer cells were grown in RPMI 1640 (ATCC) supplemented with 10% fetal bovine serum (FBS) (Biowhittaker). Adherent cultures were passaged weekly at subconfluence after trypsinization. Cultures were maintained in incubators at 37° C. in an atmosphere of 5% CO2 and 95% air.\nH508 colon cancer cell proliferation assay. Cell proliferation was determined using the sulforhodamine B (SRB) colorimetric assay (Skehan et al., 1990). Cells were seeded in 96-well plates (Corning Glass Works, Corning, N.Y.) at approx. 10% confluence and allowed to attach for 24 h. Growth medium was removed and fresh medium without FBS and containing the indicated concentration of test agent was added. Cells were incubated for the indicated periods of time at 37° C. in an atmosphere of 5% CO2 and 95% air. After incubation, cells were treated for 30 min with 0.4% (w/v) SRB dissolved in 1% acetic acid. Protein-bound dye was extracted with unbuffered 10 mM Tris base. Absorbance was measured at 560 nm using a computer-interfaced, 96-well microtiter plate reader.\nc-di-GMP inhibits proliferation of human colon cancer cells. The potential therapeutic actions of c-di-GMP were examined on basal and growth factor-stimulated proliferation of cells derived from a moderately differentiated human cecal adenocarcinoma (H508 cells) that express M3 muscarinic (M3R) and epidermal growth factor (EGF) receptors (EGFR) (Cheng et al., 2003). Cell proliferation was determined using the validated sulforhodamine B (SRB) calorimetric assay (Skehan et al., 1990). H508 cells were incubated in the absence or presence of a growth stimulant, acetylcholine (300 μM) and EGF (1 ng/ml) alone or with increasing concentrations of c-di-GMP (0.5-50 μM). After a 5-day incubation, the highest concentration of c-di-GMP tested, 50 μM, reduced basal H508 cell proliferation by approx. 15% (FIG. 1; p<0.05 compared to control, Student's unpaired t-test)."}}}
{"smiles": "O=c1[nH]cc(F)c(=O)[nH]1", "note": "[5-fluorouracil]", "values": [{"measurement": "reduction of colon cancer mortality", "setting": "[1]", "result": 33, "unit": "%"}, {"measurement": "reduction of colon cancer recurrence", "setting": "[1]", "result": 42, "unit": "%"}]}
{"smiles": "Nc1nc2c(ncn2[C@@H]2O[C@H](COP(=O)(O)O)[C@@H](O)[C@H]2O)c(=O)[nH]1", "note": "[5′-GMP, guanosine 5′-monophosphate, reference compound]", "values": [{"measurement": "effect on basal H508 cell proliferation", "setting": "[2]", "result": "neither of the guanosine analogs tested, cGMP and 5′-GMP, altered basal proliferation"}, {"measurement": "effect on EGF-induced H508 cell proliferation", "setting": "[2]", "result": "reduced"}, {"measurement": "effect on acetylcholine-induced H508 cell proliferation", "setting": "[2]", "result": "reduced"}, {"measurement": "potency in reducing acetylcholine- and EGF-stimulated H508 proliferation compared with c-di-GMP", "setting": "[2]", "result": "less potent in this action than c-di-GMP"}]}
{"smiles": "Nc1nc2c(ncn2[C@@H]2O[C@@H]3COP(=O)(O)O[C@H]3[C@H]2O)c(=O)[nH]1", "note": "[cGMP, guanosine 3′,5′-cyclic monophosphate, reference compound]", "values": [{"measurement": "effect on basal H508 cell proliferation", "setting": "[2]", "result": "neither of the guanosine analogs tested, cGMP and 5′-GMP, altered basal proliferation"}, {"measurement": "effect on EGF-induced H508 cell proliferation", "setting": "[2]", "result": "reduced"}, {"measurement": "effect on acetylcholine-induced H508 cell proliferation", "setting": "[2]", "result": "reduced"}, {"measurement": "potency in reducing acetylcholine- and EGF-stimulated H508 proliferation compared with c-di-GMP", "setting": "[2]", "result": "less potent in this action than c-di-GMP"}]}
